Laboratory results reported in US9284320B2, “Ticagrelor adducts with divalent metal salts” (Lek Pharmaceuticals d.d., priority 2012, dated 2016).

Experiments:
[1] = Hygroscopicity observed on isolation of the adduct; type: physicochemical; conditions: on air, after filtration under nitrogen
Method: To a solution of TCG (0.30 g) in dry MeCN (4 mL) at 60° C. MgCl2 (60 mg) was added in one portion, and the resulting reaction mixture was stirred at 60° C. for 16 h.
To a solution of TCG (0.20 g) in dry MeCN (5 mL) at 50° C. MgBr2 (74 mg) was added in one portion, and the resulting reaction mixture was stirred at 50° C. for 15 min.

[2] = general statement in the description; cited from earlier work
[3] = Physical stability at room temperature (DSC), adduct compared to amorphous TCG; type: physicochemical
Method: The so obtained Ia was left at room temperature in a closed vial to test physical stability. DSC analysis was performed after 21 days (FIG. 2) and after 31 days (FIG. 3).
DSC analysis of a sample was performed immediately (FIG. 4). Another sample of the so obtained Ia was left at room temperature to test physical stability.
TCG (0.52 g) was dissolved in 55 mL of aqueous ethanol (50 vol %) with the aid of ultrasonic irradiation. To the solution 33 mL water was poured at once and the obtained turbid mixture was frozen immediately in liquid nitrogen. The material was then lyophilized for 72 h at ˜0.8 mbar. DSC analysis of a sample was performed immediately (FIG. 6). Another sample of the so obtained amorphous TCG was left at room temperature to test physical stability.
Conditions for obtaining DSC thermograms: Thermograms were obtained with Mettler Toledo DSC822e differential scanning calorimeter. The sample (1-10 mg) was placed in an unsealed aluminium pan with a hole and heated at 10° C./min in the temperature range from 30° C. to 250° C.

CCCSc1nc(N[C@@H]2C[C@H]2c2ccc(F)c(F)c2)c2nnn([C@@H]3C[C@H](OCCO)[C@@H](O)[C@H]3O)c2n1 [Ib]
hygroscopicity [1]: hygroscopic on air

CCCSc1nc(N[C@@H]2C[C@H]2c2ccc(F)c(F)c2)c2nnn([C@@H]3C[C@H](OCCO)[C@@H](O)[C@H]3O)c2n1 [Ticagrelor, 3-[7-[[(1R,2S)-2-(3,4-difluorophenyl)cyclopropyl]amino]-5-(propylthio)-3H-1,2,3-triazolo[4,5-d]pyrimidin-3-yl]-5-(2-hydroxyethoxy)-(1S,2S,3R,5S)-1,2-cyclopentanediol]
solubility in water [2]: low solubility in water

CCCSc1nc(N[C@@H]2C[C@H]2c2ccc(F)c(F)c2)c2nnn([C@@H]3C[C@H](OCCO)[C@@H](O)[C@H]3O)c2n1 [amorphous basic ticagrelor]
chemical and physical stability (conversion of amorphous state to crystalline form) [3]: quickly converts to the more stable crystalline forms
